Data taken from the supplement of paper PMC10307832.

How the values were obtained:
Experiment in all cases: relative viability (nuclei count vs DMSO), 5 days (fraction); higher = more cells survive
NCI-H2126 = tested on: NCI-H2126
Method in brief: (§1)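 After 5 days of treatment, lung cancer cells in 1536-well plates were fixed and stained in a single step (final 0.05% Triton X-100, 1% formaldehyde, 1 ug/ml Hoechst) and their nuclei counted on 4× images. Treatment had been applied by pin tool the day after seeding as one drug alone or as a fixed anchor-drug dose with five library-drug doses (not always all listed) in √10 steps. Relative viability is the nuclei count of treated wells divided by that of vehicle wells, and values are medians of duplicate plates.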

LC-2-ad = tested on: LC-2-ad
Method in brief: as §1

EPLC-272H = tested on: EPLC-272H
Method in brief: as §1

NCI-H2087 = tested on: NCI-H2087
Method in brief: as §1

ChaGo-K-1 = tested on: ChaGo-K-1
Method in brief: as §1

LCLC-97TM1 = tested on: LCLC-97TM1
Method in brief: as §1

NCI-H23 = tested on: NCI-H23
Method in brief: as §1

HCC-827 = tested on: HCC-827
Method in brief: as §1

NCI-H520 = tested on: NCI-H520
Method in brief: as §1

NCI-H2347 = tested on: NCI-H2347
Method in brief: as §1

NCI-H2405 = tested on: NCI-H2405
Method in brief: as §1

NCI-H1915 = tested on: NCI-H1915
Method in brief: as §1

NCI-H1666 = tested on: NCI-H1666
Method in brief: as §1

PC-14 = tested on: PC-14
Method in brief: as §1

201T = tested on: 201T
Method in brief: as §1

NCI-H647 = tested on: NCI-H647
Method in brief: as §1

HCC-78 = tested on: HCC-78
Method in brief: as §1

RERF-LC-KJ = tested on: RERF-LC-KJ
Method in brief: as §1

COR-L 105 = tested on: COR-L 105
Method in brief: as §1

H3255 = tested on: H3255
Method in brief: as §1

NCI-H650 = tested on: NCI-H650
Method in brief: as §1

NCI-H661 = tested on: NCI-H661
Method in brief: as §1

Work on `O=c1cc(-c2cccc3c2Sc2ccccc2S3)oc(N2CCOCC2)c1` + CC(=O)Nc1cccc(-n2c(=O)n(C3CC3)c(=O)c3c(Nc4ccc(I)cc4F)n(C)c(=O)c(C)c32)c1 [Trametinib] (partner 0.02 µM) yielded a relative viability (NCI-H2126; first compound 0.08 µM) of 0.583, a relative viability (NCI-H2126; first compound 0.253 µM) of 0.583 and a relative viability (NCI-H2126; first compound 0.8 µM) of 0.526. For the same molecule, the relative viability (NCI-H2126; first compound 2.53 µM) was 0.508, the relative viability (NCI-H2126; first compound 8 µM) was 0.474 and the relative viability (LC-2-ad; first compound 0.08 µM) was 0.882. The relative viability (LC-2-ad; first compound 0.253 µM) was 0.967, the relative viability (LC-2-ad; first compound 0.8 µM) was 0.93 and the relative viability (LC-2-ad; first compound 2.53 µM) was 0.858. For the same molecule, the relative viability (LC-2-ad; first compound 8 µM) was 0.858, the relative viability (EPLC-272H; first compound 0.08 µM) was 0.254 and the relative viability (EPLC-272H; first compound 0.253 µM) was 0.293. It also gave a relative viability (EPLC-272H; first compound 0.8 µM) of 0.238, a relative viability (EPLC-272H; first compound 2.53 µM) of 0.28 and a relative viability (EPLC-272H; first compound 8 µM) of 0.28. For the same molecule, the relative viability (NCI-H2087; first compound 0.08 µM) was 0.143, the relative viability (NCI-H2087; first compound 0.253 µM) was 0.212 and the relative viability (NCI-H2087; first compound 0.8 µM) was 0.172. For the same molecule, the relative viability (NCI-H2087; first compound 2.53 µM) was 0.172, the relative viability (NCI-H2087; first compound 8 µM) was 0.179 and the relative viability (ChaGo-K-1; first compound 0.08 µM) was 0.862. The relative viability (ChaGo-K-1; first compound 0.253 µM) was 0.935, the relative viability (ChaGo-K-1; first compound 0.8 µM) was 0.894 and the relative viability (ChaGo-K-1; first compound 2.53 µM) was 0.908. The relative viability (ChaGo-K-1; first compound 8 µM) was 0.955, the relative viability (LCLC-97TM1; first compound 0.08 µM) was 0.204 and the relative viability (LCLC-97TM1; first compound 0.253 µM) was 0.196. For the same molecule, the relative viability (LCLC-97TM1; first compound 0.8 µM) was 0.175, the relative viability (LCLC-97TM1; first compound 2.53 µM) was 0.186 and the relative viability (LCLC-97TM1; first compound 8 µM) was 0.181. It also gave a relative viability (NCI-H23; first compound 0.08 µM) of 0.334, a relative viability (NCI-H23; first compound 0.253 µM) of 0.418 and a relative viability (NCI-H23; first compound 0.8 µM) of 0.349. It also gave a relative viability (NCI-H23; first compound 2.53 µM) of 0.313, a relative viability (NCI-H23; first compound 8 µM) of 0.317 and a relative viability (HCC-827; first compound 0.08 µM) of 0.508. It also gave a relative viability (HCC-827; first compound 0.253 µM) of 0.563, a relative viability (HCC-827; first compound 0.8 µM) of 0.537 and a relative viability (HCC-827; first compound 2.53 µM) of 0.427. For the same molecule, the relative viability (HCC-827; first compound 8 µM) was 0.544, the relative viability (NCI-H520; first compound 0.08 µM) was 0.566 and the relative viability (NCI-H520; first compound 0.253 µM) was 0.741. For the same molecule, the relative viability (NCI-H520; first compound 0.8 µM) was 0.78, the relative viability (NCI-H520; first compound 2.53 µM) was 0.776 and the relative viability (NCI-H520; first compound 8 µM) was 0.637. The relative viability (NCI-H2347; first compound 0.08 µM) was 0.283, the relative viability (NCI-H2347; first compound 0.253 µM) was 0.266 and the relative viability (NCI-H2347; first compound 0.8 µM) was 0.264. It also gave a relative viability (NCI-H2347; first compound 2.53 µM) of 0.27, a relative viability (NCI-H2347; first compound 8 µM) of 0.295 and a relative viability (NCI-H2405; first compound 0.08 µM) of 0.589. For the same molecule, the relative viability (NCI-H2405; first compound 0.253 µM) was 0.673, the relative viability (NCI-H2405; first compound 0.8 µM) was 0.599 and the relative viability (NCI-H2405; first compound 2.53 µM) was 0.534. It also gave a relative viability (NCI-H2405; first compound 8 µM) of 0.577, a relative viability (NCI-H1915; first compound 0.08 µM) of 0.293 and a relative viability (NCI-H1915; first compound 0.253 µM) of 0.312. It also gave a relative viability (NCI-H1915; first compound 0.8 µM) of 0.32, a relative viability (NCI-H1915; first compound 2.53 µM) of 0.285 and a relative viability (NCI-H1915; first compound 8 µM) of 0.264. The relative viability (NCI-H1666; first compound 0.08 µM) was 0.828, the relative viability (NCI-H1666; first compound 0.253 µM) was 0.916 and the relative viability (NCI-H1666; first compound 0.8 µM) was 0.864. The relative viability (NCI-H1666; first compound 2.53 µM) was 0.89, the relative viability (NCI-H1666; first compound 8 µM) was 0.793 and the relative viability (PC-14; first compound 0.08 µM) was 0.748. It also gave a relative viability (PC-14; first compound 0.253 µM) of 0.828, a relative viability (PC-14; first compound 0.8 µM) of 0.728 and a relative viability (PC-14; first compound 2.53 µM) of 0.827. For the same molecule, the relative viability (PC-14; first compound 8 µM) was 0.718, the relative viability (201T; first compound 0.08 µM) was 0.722 and the relative viability (201T; first compound 0.253 µM) was 0.735. The relative viability (201T; first compound 0.8 µM) was 0.727, the relative viability (201T; first compound 2.53 µM) was 0.673 and the relative viability (201T; first compound 8 µM) was 0.686. The relative viability (NCI-H647; first compound 0.08 µM) was 0.452, the relative viability (NCI-H647; first compound 0.253 µM) was 0.543 and the relative viability (NCI-H647; first compound 0.8 µM) was 0.405. For the same molecule, the relative viability (NCI-H647; first compound 2.53 µM) was 0.376, the relative viability (NCI-H647; first compound 8 µM) was 0.418 and the relative viability (HCC-78; first compound 0.08 µM) was 0.712. For the same molecule, the relative viability (HCC-78; first compound 0.253 µM) was 1.03, the relative viability (HCC-78; first compound 0.8 µM) was 0.677 and the relative viability (HCC-78; first compound 2.53 µM) was 0.786. It also gave a relative viability (HCC-78; first compound 8 µM) of 0.544, a relative viability (RERF-LC-KJ; first compound 0.08 µM) of 0.79 and a relative viability (RERF-LC-KJ; first compound 0.253 µM) of 0.856. For the same molecule, the relative viability (RERF-LC-KJ; first compound 0.8 µM) was 0.89, the relative viability (RERF-LC-KJ; first compound 2.53 µM) was 0.895 and the relative viability (RERF-LC-KJ; first compound 8 µM) was 0.784. It also gave a relative viability (COR-L 105; first compound 0.08 µM) of 0.397, a relative viability (COR-L 105; first compound 0.253 µM) of 0.359 and a relative viability (COR-L 105; first compound 0.8 µM) of 0.383. For the same molecule, the relative viability (COR-L 105; first compound 2.53 µM) was 0.434, the relative viability (COR-L 105; first compound 8 µM) was 0.461 and the relative viability (H3255; first compound 0.08 µM) was 0.725. The relative viability (H3255; first compound 0.253 µM) was 0.588, the relative viability (H3255; first compound 0.8 µM) was 0.681 and the relative viability (H3255; first compound 2.53 µM) was 0.543. For the same molecule, the relative viability (H3255; first compound 8 µM) was 0.561, the relative viability (NCI-H650; first compound 0.08 µM) was 0.994 and the relative viability (NCI-H650; first compound 0.253 µM) was 1.03. It also gave a relative viability (NCI-H650; first compound 0.8 µM) of 0.959, a relative viability (NCI-H650; first compound 2.53 µM) of 0.901 and a relative viability (NCI-H650; first compound 8 µM) of 0.977. For the same molecule, the relative viability (NCI-H661; first compound 0.08 µM) was 0.565, the relative viability (NCI-H661; first compound 0.253 µM) was 0.649 and the relative viability (NCI-H661; first compound 0.8 µM) was 0.527. The relative viability (NCI-H661; first compound 2.53 µM) was 0.514 and the relative viability (NCI-H661; first compound 8 µM) was 0.471.
